PMC9112332, “Structure-Based Design of α-Substituted Mercaptoacetamides as Inhibitors of the Virulence Factor LasB from Pseudomonas aeruginosa” (ACS Infectious Diseases, 2022)
Like-named read-outs stand apart in the source and are kept apart here.

What was measured:
LasB [1] = biological target: T1, LasB (Pseudomonas aeruginosa, UniProt Q02RJ6); conditions: Figure 1; read-out: IC50 (reported LasB inhibitors, Figure 1); cited from earlier work
LasB [2] = biological target: T1, LasB; assay: LasB inhibition assay (FRET-based, in vitro); conditions: for activity of pure LasB: 0.3 nM pure LasB
Protocol: LasB Inhibition Assay. The purification of LasB from P. aeruginosa P14 supernatant as well
as the subsequent performance of the FRET-based in vitro inhibition assay was performed as
described previously.1 All samples were run in duplicate for each condition, and experiments
were performed independently at least twice.

[3] = Cytotoxicity assay, HepG2; assay type: cell-based; conditions: HepG2 cells; human hepatoma cell line
ADAM17 = ADAM17 (Homo sapiens, UniProt P78536); assay: Human off-target inhibition assay, ADAM17 (TACE); assay type: biochemical
MMP-1 = biological target: T2, MMP-1 (Homo sapiens, UniProt P03956); assay: Human off-target inhibition assay, MMP-1; assay type: biochemical
T2 sequence (P03956 100-469): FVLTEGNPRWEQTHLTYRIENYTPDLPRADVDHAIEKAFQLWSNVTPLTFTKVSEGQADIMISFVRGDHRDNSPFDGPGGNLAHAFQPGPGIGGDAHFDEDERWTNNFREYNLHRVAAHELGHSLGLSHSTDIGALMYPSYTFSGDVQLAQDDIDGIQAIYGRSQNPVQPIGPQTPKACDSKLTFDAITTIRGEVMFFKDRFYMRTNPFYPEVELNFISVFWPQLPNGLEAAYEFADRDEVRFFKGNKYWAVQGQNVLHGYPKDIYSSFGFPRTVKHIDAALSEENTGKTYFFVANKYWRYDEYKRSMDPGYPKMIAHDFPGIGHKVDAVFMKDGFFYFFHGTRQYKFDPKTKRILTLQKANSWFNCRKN

[4] = test system: A549 cells treated with ΔlasB PA14 supernatant; assay type: cell-based, human; conditions: 15% (v/v) ΔlasB PA14 supernatant, MTT
G. mellonella larvae = assay: In vivo Galleria mellonella virulence assay; conditions: compound with wt PA14 supernatant, after 6 days
P. aeruginosa PA14 = assay: Antibacterial activity (MIC) assay; assay type: cell-based, Pseudomonas aeruginosa
HDAC-8 = biological target: T3, HDAC-8 (Homo sapiens, UniProt Q9BY41); assay: Human off-target inhibition assay, HDAC-8; assay type: biochemical
T3 sequence (Q9BY41 1-377): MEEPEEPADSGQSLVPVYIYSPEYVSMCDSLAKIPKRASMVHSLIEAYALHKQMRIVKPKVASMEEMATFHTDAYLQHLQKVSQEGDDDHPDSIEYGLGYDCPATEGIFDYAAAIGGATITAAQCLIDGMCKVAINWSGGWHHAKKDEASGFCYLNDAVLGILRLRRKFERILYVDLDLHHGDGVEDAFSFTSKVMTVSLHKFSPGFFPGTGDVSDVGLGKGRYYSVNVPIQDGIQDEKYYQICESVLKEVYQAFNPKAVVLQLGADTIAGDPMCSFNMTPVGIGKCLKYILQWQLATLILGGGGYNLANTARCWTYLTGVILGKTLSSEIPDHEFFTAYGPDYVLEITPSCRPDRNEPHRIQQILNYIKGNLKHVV
Protocol: (§1) Table 3 Activities of Four LasB Inhibitors against the Selected MMPs (% of inhibition at 100 μM) and Further Human Off-Targets ^a | column: 3; 12; 13; 23

Cytotoxicity assay, A549 = assay type: cell-based; conditions: A549 cells; adenocarcinomic human alveolar basal epithelial cells
[5] = Cytotoxicity assay, HEK293; assay type: cell-based; conditions: HEK293 cells; human embryonic kidney cells
zebrafish embryos = assay: Zebrafish embryo toxicity (maximum tolerated concentration) assay; assay type: in vivo
MMP-7 = biological target: T4, MMP-7 (Homo sapiens, UniProt P09237); assay: Human off-target inhibition assay, MMP-7; assay type: biochemical
T4 sequence (P09237 95-267): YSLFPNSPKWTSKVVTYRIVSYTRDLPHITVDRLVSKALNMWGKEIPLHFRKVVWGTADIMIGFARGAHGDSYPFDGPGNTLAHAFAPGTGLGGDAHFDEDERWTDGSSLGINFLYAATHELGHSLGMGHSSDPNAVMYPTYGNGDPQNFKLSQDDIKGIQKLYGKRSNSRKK

ColH-PD = ColH-PD (Hathewaya histolytica, UniProt Q46085); assay: biochemical; design: species or system C. histolyticum
[6] = test system: A549 cells treated with wt PA14 supernatant; assay: cells; conditions: Homo sapiens, A549, 24 h, read-out: increase in viability of A549 cells
[7] = test system: A549 cells treated with wt PA14 supernatant; conditions: 15% (v/v) wt PA14 supernatant, MTT
MMP-2 = biological target: T5, MMP-2 (Homo sapiens, UniProt P08253); assay: Human off-target inhibition assay, MMP-2; assay type: biochemical
T5 sequence (P08253 110-660): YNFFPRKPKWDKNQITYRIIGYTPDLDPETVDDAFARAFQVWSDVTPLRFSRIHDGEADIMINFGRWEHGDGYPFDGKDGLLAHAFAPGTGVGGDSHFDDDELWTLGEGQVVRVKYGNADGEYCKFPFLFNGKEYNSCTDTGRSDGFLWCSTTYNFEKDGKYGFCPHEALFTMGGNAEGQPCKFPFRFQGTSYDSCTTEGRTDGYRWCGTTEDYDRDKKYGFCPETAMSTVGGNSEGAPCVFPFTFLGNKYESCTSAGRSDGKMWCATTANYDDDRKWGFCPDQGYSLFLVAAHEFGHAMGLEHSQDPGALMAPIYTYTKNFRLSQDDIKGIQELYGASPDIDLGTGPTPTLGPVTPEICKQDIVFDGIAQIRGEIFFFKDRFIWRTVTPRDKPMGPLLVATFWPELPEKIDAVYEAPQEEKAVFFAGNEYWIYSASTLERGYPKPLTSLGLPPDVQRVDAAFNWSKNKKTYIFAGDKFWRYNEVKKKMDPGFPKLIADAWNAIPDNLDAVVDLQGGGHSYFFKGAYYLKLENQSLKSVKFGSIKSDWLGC

MMP-8 = MMP-8 (Homo sapiens, UniProt P22894); assay: Human off-target inhibition assay, MMP-8; assay type: biochemical
MMP-3 = MMP-3 (Homo sapiens, UniProt P08254); assay: Human off-target inhibition assay, MMP-3; assay type: biochemical
MMP-14 = MMP-14 (Homo sapiens, UniProt P50281); assay: Human off-target inhibition assay, MMP-14; assay type: biochemical
HDAC-3 = HDAC-3 (Homo sapiens, UniProt O15379); assay: Human off-target inhibition assay, HDAC-3; assay type: biochemical
Protocol: as §1

T1 sequence (Q02RJ6 198-498): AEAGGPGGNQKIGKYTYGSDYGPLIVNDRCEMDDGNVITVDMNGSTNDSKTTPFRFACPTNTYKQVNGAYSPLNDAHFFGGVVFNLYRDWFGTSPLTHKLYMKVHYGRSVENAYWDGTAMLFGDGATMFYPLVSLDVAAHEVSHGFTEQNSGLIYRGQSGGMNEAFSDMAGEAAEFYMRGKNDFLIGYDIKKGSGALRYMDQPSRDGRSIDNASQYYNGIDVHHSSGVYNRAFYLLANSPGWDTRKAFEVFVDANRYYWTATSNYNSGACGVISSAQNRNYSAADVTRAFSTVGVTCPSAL
Chain of MMP-3 (P08254 100-477): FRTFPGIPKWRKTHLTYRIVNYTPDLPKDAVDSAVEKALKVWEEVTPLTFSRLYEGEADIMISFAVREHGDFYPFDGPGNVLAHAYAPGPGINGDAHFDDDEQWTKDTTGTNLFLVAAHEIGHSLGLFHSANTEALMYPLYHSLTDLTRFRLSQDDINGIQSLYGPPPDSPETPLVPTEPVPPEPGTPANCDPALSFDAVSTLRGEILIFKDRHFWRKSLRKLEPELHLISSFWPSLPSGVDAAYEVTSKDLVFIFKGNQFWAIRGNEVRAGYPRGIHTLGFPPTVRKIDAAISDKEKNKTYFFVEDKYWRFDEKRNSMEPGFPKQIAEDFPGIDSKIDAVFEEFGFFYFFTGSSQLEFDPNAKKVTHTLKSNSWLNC
Chain of ADAM17 (P78536 215-824): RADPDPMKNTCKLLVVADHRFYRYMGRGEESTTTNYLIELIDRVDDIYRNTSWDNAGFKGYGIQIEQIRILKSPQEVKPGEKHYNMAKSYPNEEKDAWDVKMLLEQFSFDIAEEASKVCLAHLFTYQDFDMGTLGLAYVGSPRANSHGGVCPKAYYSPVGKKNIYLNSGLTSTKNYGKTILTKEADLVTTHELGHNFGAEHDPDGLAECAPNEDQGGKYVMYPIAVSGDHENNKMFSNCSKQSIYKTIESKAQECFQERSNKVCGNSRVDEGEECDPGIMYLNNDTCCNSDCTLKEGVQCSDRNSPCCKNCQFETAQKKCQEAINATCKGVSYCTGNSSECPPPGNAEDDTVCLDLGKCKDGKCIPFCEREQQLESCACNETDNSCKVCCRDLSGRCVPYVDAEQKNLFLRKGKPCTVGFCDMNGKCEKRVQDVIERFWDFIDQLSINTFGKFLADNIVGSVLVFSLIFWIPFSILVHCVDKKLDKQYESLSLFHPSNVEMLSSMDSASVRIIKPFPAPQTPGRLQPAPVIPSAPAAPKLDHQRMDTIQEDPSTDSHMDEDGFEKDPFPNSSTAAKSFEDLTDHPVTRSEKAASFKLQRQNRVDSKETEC
Chain of ColH-PD (Q46085 331-721 limits assumed): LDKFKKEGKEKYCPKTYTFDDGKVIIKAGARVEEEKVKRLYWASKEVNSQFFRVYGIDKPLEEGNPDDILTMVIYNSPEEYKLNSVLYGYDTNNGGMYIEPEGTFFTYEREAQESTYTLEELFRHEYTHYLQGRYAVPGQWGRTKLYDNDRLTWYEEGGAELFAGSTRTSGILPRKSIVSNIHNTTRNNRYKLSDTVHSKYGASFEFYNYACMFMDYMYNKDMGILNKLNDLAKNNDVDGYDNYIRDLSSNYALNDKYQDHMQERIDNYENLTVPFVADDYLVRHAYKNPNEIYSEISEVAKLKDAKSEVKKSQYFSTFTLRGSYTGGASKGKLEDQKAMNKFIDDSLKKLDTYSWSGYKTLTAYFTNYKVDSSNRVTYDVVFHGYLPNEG
Chain of HDAC-3 (O15379 whole entry): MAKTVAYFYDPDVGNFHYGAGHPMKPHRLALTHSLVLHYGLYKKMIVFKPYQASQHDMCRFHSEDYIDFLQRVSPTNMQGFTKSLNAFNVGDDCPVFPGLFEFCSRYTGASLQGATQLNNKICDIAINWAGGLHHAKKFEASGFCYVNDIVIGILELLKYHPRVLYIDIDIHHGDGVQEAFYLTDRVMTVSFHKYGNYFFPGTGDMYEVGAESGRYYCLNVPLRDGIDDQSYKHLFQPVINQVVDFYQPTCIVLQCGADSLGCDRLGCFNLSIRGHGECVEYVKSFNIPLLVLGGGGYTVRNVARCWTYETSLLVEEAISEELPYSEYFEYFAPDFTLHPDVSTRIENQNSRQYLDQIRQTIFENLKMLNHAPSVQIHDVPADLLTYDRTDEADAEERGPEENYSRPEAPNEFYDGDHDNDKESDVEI
Chain of HDAC-3 (Q9Y618 395-489 partner limits assumed): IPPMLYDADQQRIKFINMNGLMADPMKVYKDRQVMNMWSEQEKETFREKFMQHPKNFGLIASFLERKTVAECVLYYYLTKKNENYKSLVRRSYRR
Chain of MMP-8 (P22894 101-467): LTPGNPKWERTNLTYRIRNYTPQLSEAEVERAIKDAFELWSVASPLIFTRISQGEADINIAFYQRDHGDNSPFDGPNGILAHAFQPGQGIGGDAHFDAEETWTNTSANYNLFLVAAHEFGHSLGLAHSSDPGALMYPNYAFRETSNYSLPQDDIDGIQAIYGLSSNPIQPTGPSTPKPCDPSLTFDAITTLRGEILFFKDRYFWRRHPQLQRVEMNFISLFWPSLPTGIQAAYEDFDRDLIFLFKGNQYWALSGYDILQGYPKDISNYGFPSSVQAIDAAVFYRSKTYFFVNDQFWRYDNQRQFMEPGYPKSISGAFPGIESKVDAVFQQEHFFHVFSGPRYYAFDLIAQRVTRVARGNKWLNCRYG

For O=C(CC(=O)Nc1ccc(Cl)c(Cl)c1)NO [Compound 2], the IC50 (LasB [1]) is listed as 17.4 µM.

For O=C(O)CC1(C(=O)NCc2nc3ccccc3s2)Cc2ccccc2C1 [Compound 1], the IC50 (LasB [1]) is listed as 0.159 µM.

With Cl.O=C(O)CCP(CCC(=O)O)CCC(=O)O [TCEP, Tris(2-carboxyethyl)phosphine hydrochloride] the “activity of pure LasB” value (LasB [2]; 0.6 mM TCEP and lower) was “no inhibition”, the “activity of pure LasB” value (LasB [2]; 5 mM and […] TCEP) was “completely lost” and the “viability of A549 cells” value (A549 cells) was “no effect on cell viability”.

Work on O=C(Nc1nc2ccccc2s1)C(S)Cc1ccccc1 (stereo not shown) [Compound 23, N-(Benzo[d]thiazol-2-yl)-2-mercapto-3-phenylpropanamide] yielded an IC50 [3] greater than 100 µM, an IC50 (ADAM17) of 10.4 ± 0.2 µM and an inhibition at 100 µM (MMP-1) of less than 10%. The “effect on A549 cells treated with ΔlasB PA14 supernatant (in words)” value [4] was “no effect”, the survival of larvae (G. mellonella larvae) was 70 ± 5% and the MIC (P. aeruginosa PA14; Pseudomonas aeruginosa, P. aeruginosa PA14) was greater than 100 µM. For the same compound, the “reduction of bacterial growth” value (P. aeruginosa PA14; at 100 μM) was “less than 10%”, the IC50 (HDAC-8) was greater than 100 µM and the IC50 (Cytotoxicity assay, A549) was greater than 100 µM. It also gave an IC50 [5] greater than 100 µM, a Survival rate % (zebrafish embryos; 2 µM) of 100% and a Survival rate % (zebrafish embryos; 30 µM) of 70%. For the same compound, the “toxicity (larvae with toxicity signs)” value (zebrafish embryos; 30 µM, Table S2) was 30%, the embryo observation (zebrafish embryos; 50 µM, 2 dpf) was “imp. dev” and the embryo observation (zebrafish embryos; 50 µM, 3 dpf) was 5 imp. dev. The embryo observation (zebrafish embryos; 50 µM, 4 dpf) was 5 imp. dev, the embryo observation (zebrafish embryos; 50 µM, 5 dpf) was 5 imp. dev and the Survival rate % (zebrafish embryos; 100 µM) was 0%. For the same compound, the embryo observation (zebrafish embryos; 100 µM, 2 dpf) was “imp. dev”, the embryo observation (zebrafish embryos; 100 µM, 3 dpf) was 5 imp. dev and the embryo observation (zebrafish embryos; 100 µM, 4 dpf) was 5 imp. dev. The embryo observation (zebrafish embryos; 100 µM, 5 dpf) was 5 imp. dev, the “maximum tolerated concentration (MTC)” value (zebrafish embryos; zebrafish embryos, until 120 hpf) was no more than 30 µM and the inhibition at 100 µM (MMP-7) was less than 10%. For the same compound, the Ki (ColH-PD) was 0.1 ± 0.01 µM, the viability at 50 µM [6] was 80 ± 15% and the “effect on viability of A549 cells treated with wt PA14 supernatant (in words)” value [7] was “Dose-dependent effect”. For the same compound, the inhibition at 100 µM (MMP-2) was less than 10%, the IC50 (LasB [2]) was 0.7 ± 0.1 µM and the “ligand efficiency (LE)” value (LasB [2]; calculated from LasB activity) was 0.48. The “lipophilic ligand efficiency (LLE)” value (LasB [2]; calculated from LasB activity) was 3.21, the inhibition at 100 µM (MMP-8) was less than 10% and the inhibition at 100 µM (MMP-3) was less than 10%. It also gave an inhibition at 100 µM (MMP-14) of less than 10% and an IC50 (HDAC-3) greater than 100 µM.
